Inconclusive results and toxic doses are left out. Numbered stars: 1 amine (or outer) side, 2 acyl side, 3 side chain; on linkers, the order of the positions; unused ones are H or OH. Bridge positions count the residues as written; N and C are the ends. Square brackets hold non-standard residues; d marks the D form. Peptide text beside a SMILES is read from it. I, II: the chains in the order shown. Actinocin(1to9) = Cc1c2oc3c(C)ccc(C(=O)[*:2])c3nc-2c(C(=O)[*:1])c(N)c1=O; NMeV = CN[CH](C(=O)O)C(C)C; Sar = CNCC(=O)O
System: L1210 leukemia ip in BDF1 mice, survival T/C
Assay: NCI In Vivo Anticancer Drug Screen. Data for tumor model L1210 Leukemia (intraperitoneal) in B6D2F1 (BDF1) mice
Conditions: higher = longer survival
In short: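 Tumor cells were implanted, animals were treated, and survival was followed. The result divides the treated measurement by the vehicle-control measurement.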

[1] = endpoint: mean survival time, dose: 100.0 mg/kg/injection, schedule: Q04DX003 (ip), vehicle: saline with Tween-80
[2] = endpoint: mean survival time, dose: 200.0 mg/kg/injection, schedule: Q04DX003 (ip), vehicle: saline with Tween-80
[3] = endpoint: mean survival time, dose: 400.0 mg/kg/injection, schedule: Q04DX003 (ip), vehicle: saline with Tween-80
[4] = endpoint: mean survival time, dose: 25.0 mg/kg/injection, schedule: Q04DX003 (ip), vehicle: saline
[5] = endpoint: mean survival time, dose: 50.0 mg/kg/injection, schedule: Q04DX003 (ip), vehicle: saline

## CCC(C)C1NC(=O)C(NC(=O)c2c3nc4c(C(=O)NC5C(=O)NC(C(C)C)C(=O)N6CCCC6C(=O)N(C)CC(=O)N(C)C(C(C)C)C(=O)OC5C)ccc(C)c4oc-3c(C)c(=O)c2N)C(C)OC(=O)C(C(C)C)N(C)C(=O)CN(C)C(=O)C2CCCN2C1=O (configuration not stated) (I: TIP[Sar][NMeV] / II: TVP[Sar][NMeV]; ester I:1-I:C, II:1-II:C; linker I:N-II:N via Actinocin(1to9); configuration not given here)
endpoint: mean survival time, dose: 0.2 mg/kg/injection, schedule: Q01DX009 (ip), vehicle: saline
  T/C: 92 % of control
endpoint: mean survival time, dose: 3.1 micrograms/kg/injection, schedule: Q01DX001 (ip), vehicle: saline
  T/C: 97 % of control
endpoint: mean survival time, dose: 5.5 micrograms/kg/injection, schedule: Q01DX009 (ip), vehicle: acetone
  T/C: 112 % of control
endpoint: mean survival time, dose: 6.3 micrograms/kg/injection, schedule: Q01DX001 (ip), vehicle: saline
  T/C: 98 % of control
endpoint: mean survival time, dose: 8.2 micrograms/kg/injection, schedule: Q01DX009 (ip), vehicle: acetone
  T/C: 123 % of control
endpoint: mean survival time, dose: 12.5 micrograms/kg/injection, schedule: Q01DX001 (ip), vehicle: saline
  T/C: 100 % of control
endpoint: mean survival time, dose: 25.0 micrograms/kg/injection, schedule: Q01DX001 (ip), vehicle: saline
  T/C: 107 % of control
endpoint: mean survival time, dose: 25.0 micrograms/kg/injection, schedule: Q01DX009 (ip), vehicle: saline
  T/C: 159 % of control
endpoint: mean survival time, dose: 50.0 micrograms/kg/injection, schedule: Q01DX001 (ip), vehicle: saline
  T/C: 114 % of control
endpoint: mean survival time, dose: 100.0 micrograms/kg/injection, schedule: Q01DX001 (ip), vehicle: saline
  T/C: 111 % of control
endpoint: mean survival time, dose: 200.0 micrograms/kg/injection, schedule: Q01DX001 (ip), vehicle: saline
  T/C: 117 % of control
endpoint: mean survival time, dose: 400.0 micrograms/kg/injection, schedule: Q01DX001 (ip), vehicle: saline
  T/C: 116 % of control
endpoint: median survival time, dose: 12.5 micrograms/kg/injection, schedule: Q01DX009 (ip), vehicle: water
  T/C: 121 % of control
endpoint: median survival time, dose: 25.0 micrograms/kg/injection, schedule: Q01DX009 (ip), vehicle: water
  T/C: 115 % of control
endpoint: median survival time, dose: 100.0 micrograms/kg/injection, schedule: Q01DX009 (ip), vehicle: water
  T/C: 157 % of control
endpoint: median survival time, dose: 200.0 micrograms/kg/injection, schedule: Q01DX001 (ip), vehicle: water
  T/C: 115 % of control
endpoint: median survival time, dose: 400.0 micrograms/kg/injection, schedule: Q01DX001 (ip), vehicle: water
  T/C: 123 % of control
endpoint: median survival time, dose: 600.0 micrograms/kg/injection, schedule: Q04DX003 (ip), vehicle: water
  T/C: 150 % of control

## CCOC(=O)C(=O)c1c[nH]c2ccccc12
[1]
  T/C: 97 % of control
[2]
  T/C: 97 % of control
[3]
  T/C: 95 % of control

## CCCCCCCCNCCCCCCCC
endpoint: mean survival time, dose: 4.62 mg/kg/injection, schedule: Q01DX009 (ip), vehicle: gum acacia
  T/C: 101 % of control
endpoint: mean survival time, dose: 5.0 mg/kg/injection, schedule: Q01DX001 (ip), vehicle: other
  T/C: 95 % of control
endpoint: mean survival time, dose: 9.25 mg/kg/injection, schedule: Q01DX009 (ip), vehicle: gum acacia
  T/C: 94 % of control
endpoint: mean survival time, dose: 10.0 mg/kg/injection, schedule: Q01DX001 (ip), vehicle: other
  T/C: 95 % of control
endpoint: mean survival time, dose: 18.5 mg/kg/injection, schedule: Q01DX009 (ip), vehicle: gum acacia
  T/C: 95 % of control
endpoint: mean survival time, dose: 20.0 mg/kg/injection, schedule: Q01DX001 (ip), vehicle: other
  T/C: 90 % of control
endpoint: mean survival time, dose: 37.0 mg/kg/injection, schedule: Q01DX009 (ip), vehicle: gum acacia
  T/C: 97 % of control
endpoint: mean survival time, dose: 40.0 mg/kg/injection, schedule: Q01DX001 (ip), vehicle: other
  T/C: 93 % of control
endpoint: mean survival time, dose: 80.0 mg/kg/injection, schedule: Q01DX001 (ip), vehicle: other
  T/C: 90 % of control
endpoint: mean survival time, dose: 100.0 mg/kg/injection, schedule: Q01DX001 (ip), vehicle: other
  T/C: 100 % of control

## CC(=O)CC(=O)CC(=O)c1ccccc1
endpoint: mean survival time, dose: 50.0 mg/kg/injection, schedule: Q04DX003 (ip), vehicle: Klucel (hydroxypropylcellulose) (HPC)
  T/C: 108 % of control
endpoint: mean survival time, dose: 100.0 mg/kg/injection, schedule: Q01DX001 (ip), vehicle: Klucel (hydroxypropylcellulose) (HPC)
  T/C: 97 % of control
endpoint: mean survival time, dose: 100.0 mg/kg/injection, schedule: Q04DX003 (ip), vehicle: Klucel (hydroxypropylcellulose) (HPC)
  T/C: 96 % of control
endpoint: mean survival time, dose: 200.0 mg/kg/injection, schedule: Q01DX001 (ip), vehicle: Klucel (hydroxypropylcellulose) (HPC)
  T/C: 93 % of control
endpoint: mean survival time, dose: 200.0 mg/kg/injection, schedule: Q04DX003 (ip), vehicle: Klucel (hydroxypropylcellulose) (HPC)
  T/C: 105 % of control
endpoint: mean survival time, dose: 400.0 mg/kg/injection, schedule: Q01DX001 (ip), vehicle: Klucel (hydroxypropylcellulose) (HPC)
  T/C: 102 % of control

## Clc1ccc2c(c1)Cc1cc(N=Cc3ccccc3Cl)ccc1-2
endpoint: mean survival time, dose: 12.5 mg/kg/injection, schedule: Q01DX001 (ip), vehicle: saline
  T/C: 97 % of control
endpoint: mean survival time, dose: 12.5 mg/kg/injection, schedule: Q04DX003 (ip), vehicle: saline
  T/C: 92 % of control
endpoint: mean survival time, dose: 25.0 mg/kg/injection, schedule: Q01DX001 (ip), vehicle: saline
  T/C: 87 % of control
[4]
  T/C: 93 % of control
endpoint: mean survival time, dose: 50.0 mg/kg/injection, schedule: Q01DX001 (ip), vehicle: saline
  T/C: 106 % of control
[5]
  T/C: 87 % of control
endpoint: mean survival time, dose: 65.0 mg/kg/injection, schedule: Q01DX Z (ip), vehicle: carboxymethylcellulose (CMC)
  T/C: 90 % of control
endpoint: mean survival time, dose: 75.0 mg/kg/injection, schedule: Q04DX003 (ip), vehicle: saline
  T/C: 101 % of control
endpoint: mean survival time, dose: 115.0 mg/kg/injection, schedule: Q04DX003 (ip), vehicle: saline
  T/C: 89 % of control
endpoint: mean survival time, dose: 125.0 mg/kg/injection, schedule: Q01DX Z (ip), vehicle: carboxymethylcellulose (CMC)
  T/C: 96 % of control
endpoint: mean survival time, dose: 170.0 mg/kg/injection, schedule: Q04DX003 (ip), vehicle: saline
  T/C: 103 % of control
endpoint: mean survival time, dose: 200.0 mg/kg/injection, schedule: Q01DX001 (ip), vehicle: saline
  T/C: 89 % of control
endpoint: mean survival time, dose: 250.0 mg/kg/injection, schedule: Q01DX Z (ip), vehicle: carboxymethylcellulose (CMC)
  T/C: 102 % of control
endpoint: mean survival time, dose: 500.0 mg/kg/injection, schedule: Q01DX Z (ip), vehicle: carboxymethylcellulose (CMC)
  T/C: 102 % of control

## CC(=Nc1cccnc1)c1ccccc1
endpoint: mean survival time, dose: 15.0 mg/kg/injection, schedule: Q01DX001 (ip), vehicle: carboxymethylcellulose (CMC)
  T/C: 98 % of control
endpoint: mean survival time, dose: 30.0 mg/kg/injection, schedule: Q01DX001 (ip), vehicle: carboxymethylcellulose (CMC)
  T/C: 97 % of control

## CC(C)=CCCC(C)CCN(C)C (configuration not stated)
[4]
  T/C: 96 % of control
[5]
  T/C: 97 % of control
endpoint: mean survival time, dose: 100.0 mg/kg/injection, schedule: Q04DX003 (ip), vehicle: saline
  T/C: 96 % of control

## CC(C)CCNNCCC(C)C
endpoint: mean survival time, dose: 75.0 mg/kg/injection, schedule: Q01DX001 (ip), vehicle: other
  T/C: 108 % of control
endpoint: mean survival time, dose: 150.0 mg/kg/injection, schedule: Q01DX001 (ip), vehicle: other
  T/C: 104 % of control

## CC(C)C1CCC(C)C(C(O)(C(F)(F)F)C(F)(F)F)C1=O (configuration not stated)
endpoint: mean survival time, dose: 100.0 mg/kg/injection, schedule: Q01DX009 (ip), vehicle: saline
  T/C: 114 % of control
endpoint: mean survival time, dose: 200.0 mg/kg/injection, schedule: Q01DX009 (ip), vehicle: saline
  T/C: 97 % of control
endpoint: mean survival time, dose: 400.0 mg/kg/injection, schedule: Q01DX009 (ip), vehicle: saline
  T/C: 97 % of control

## O=C(O)C1=CC2C3C=CC(C(=O)O)(C3)C2C1 (configuration not stated)
endpoint: mean survival time, dose: 100.0 mg/kg/injection, schedule: Q01DX009 (ip), vehicle: saline with Tween-80
  T/C: 96 % of control
[1]
  T/C: 101 % of control
endpoint: mean survival time, dose: 200.0 mg/kg/injection, schedule: Q01DX009 (ip), vehicle: saline with Tween-80
  T/C: 96 % of control
[2]
  T/C: 102 % of control
endpoint: mean survival time, dose: 400.0 mg/kg/injection, schedule: Q01DX009 (ip), vehicle: saline with Tween-80
  T/C: 94 % of control
[3]
  T/C: 98 % of control

## C[C@]12CC[C@@H]3c4ccc(Oc5nc(N6CC6)nc(N6CC6)n5)cc4CC[C@H]3[C@@H]1CCC2=O
endpoint: mean survival time, dose: 25.0 mg/kg/injection, schedule: Q01DX009 (ip), vehicle: steriod suspending solution
  T/C: 101 % of control
endpoint: mean survival time, dose: 25.0 mg/kg/injection, schedule: Q01DX009 (oral), vehicle: carboxymethylcellulose (CMC)
  T/C: 106 % of control
endpoint: mean survival time, dose: 25.0 mg/kg/injection, schedule: Q04DX003 (sc), vehicle: steriod suspending solution
  T/C: 106 % of control
endpoint: mean survival time, dose: 50.0 mg/kg/injection, schedule: Q01DX009 (oral), vehicle: carboxymethylcellulose (CMC)
  T/C: 101 % of control
endpoint: mean survival time, dose: 50.0 mg/kg/injection, schedule: Q04DX003 (sc), vehicle: steriod suspending solution
  T/C: 98 % of control
endpoint: mean survival time, dose: 100.0 mg/kg/injection, schedule: Q01DX001 (sc), vehicle: steriod suspending solution
  T/C: 105 % of control
endpoint: mean survival time, dose: 100.0 mg/kg/injection, schedule: Q01DX009 (oral), vehicle: carboxymethylcellulose (CMC)
  T/C: 104 % of control
endpoint: mean survival time, dose: 100.0 mg/kg/injection, schedule: Q04DX003 (sc), vehicle: steriod suspending solution
  T/C: 101 % of control
endpoint: mean survival time, dose: 200.0 mg/kg/injection, schedule: Q01DX001 (sc), vehicle: steriod suspending solution
  T/C: 118 % of control
endpoint: mean survival time, dose: 400.0 mg/kg/injection, schedule: Q01DX001 (sc), vehicle: steriod suspending solution
  T/C: 107 % of control

Source: PubChem BioAssay AID248 (DTP/NCI, 2004)
